Test results from PMC3161871, “Heteroarylketones inhibit astroglial interleukin-6 expression via a STAT3/NF-κB signaling pathway” (Journal of Neuroinflammation, 2011).

Columns and labels:
[1] = system: OSM-stimulated IL-6 secretion from U343 cells; test: OSM-induced IL-6 release from U343 glioma cells (IL-6 ELISA of conditioned medium); format: cell-based, human; conditions: for Remaining IL-6 expression [% of control]: 100 ng/ml OSM, 24 h, IL-6 release of vehicle-treated cells set to 100% (n = 2), mean ± SD; for Effect on OSM-induced IL-6 secretion (in words): OSM-stimulated
Protocol: The human glioma cell line U343 [34] was maintained in DMEM containing 10% fetal bovine serum and 60 μg/ml gentamycin (Invitrogen, Darmstadt, Germany) at 37°C in a 10% CO2 atmosphere.
(§1) Measurements of IL-6 in conditioned medium and murine plasma samples were done by means of human- or murine-specific IL-6 Cytoset kits (Invitrogen, Darmstadt, Germany) according to manufacturer's protocols.
Using the characterized cell culture model of OSM-induced IL-6 expression, our in-house compound libraries were screened for potent IL-6 expression inhibitors. Human U343 glioma cells were treated with 100 ng/ml OSM for 24 h. The analysis by IL-6 ELISA identified a set of structurally related compounds as potent inhibitors of IL-6 secretion (Table 1). […] HAKs with proline in position P1 are known from the literature as inhibitors of prolyl endopeptidase (PREP), a proline-specific serine protease.

[2] = molecular target: T1, human recombinant prolyl endopeptidase (PREP) (Homo sapiens, UniProt P48147); test: PREP enzymatic activity assay (Z-Gly-Pro-pNA, photometric); format: biochemical; conditions: for Ki: recombinant PREP, Z-Gly-Pro-pNA 62.5/125/250 μM, pH 7.6, 30°C, competitive fit
T1 construct: made in house
T1 sequence (P48147 1-710): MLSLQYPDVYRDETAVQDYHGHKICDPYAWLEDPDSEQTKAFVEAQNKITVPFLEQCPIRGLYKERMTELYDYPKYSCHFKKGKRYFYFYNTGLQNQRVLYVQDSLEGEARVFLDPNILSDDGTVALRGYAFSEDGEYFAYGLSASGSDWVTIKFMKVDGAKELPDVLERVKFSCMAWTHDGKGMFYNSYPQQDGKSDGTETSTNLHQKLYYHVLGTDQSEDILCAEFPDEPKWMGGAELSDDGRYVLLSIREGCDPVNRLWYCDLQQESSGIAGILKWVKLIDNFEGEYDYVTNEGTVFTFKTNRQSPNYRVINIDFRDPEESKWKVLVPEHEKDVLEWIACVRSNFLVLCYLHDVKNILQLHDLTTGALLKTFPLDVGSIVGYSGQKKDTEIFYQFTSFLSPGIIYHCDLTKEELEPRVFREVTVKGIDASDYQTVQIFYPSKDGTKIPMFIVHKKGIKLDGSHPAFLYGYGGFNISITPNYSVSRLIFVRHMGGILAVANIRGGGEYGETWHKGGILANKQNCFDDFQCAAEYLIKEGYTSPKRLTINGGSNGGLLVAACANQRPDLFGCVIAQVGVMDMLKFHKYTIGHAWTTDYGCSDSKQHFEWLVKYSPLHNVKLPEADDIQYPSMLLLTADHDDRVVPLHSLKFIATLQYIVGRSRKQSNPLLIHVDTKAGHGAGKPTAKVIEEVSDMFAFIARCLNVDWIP
Protocol: The activity of human recombinant prolyl endopeptidase (PREP) was determined photometrically using the substrate Z-Gly-Pro-pNA (Bachem, Weil am Rhein, Germany) usually at a concentration of 150 μM. As assay buffer 50 mM HEPES buffer pH 7.6, containing 200 mM NaCl, 1 mM EDTA, and 1 mM dithiothreitol was used. Release of pNA was monitored continuously at 405 nm for 15 min at 30°C in a 96-well plate reader (Spectrafluor, Tecan, Crailsheim, Germany). PREP activity was calculated from the slope of the time product curve with the help of a pNA standard. For determination of Ki values three different substrate concentrations (62.5 μM; 125 μM and 250 μM) and seven different inhibitor concentrations were analyzed. Substrate concentrations were selected to be at the Km value of Z-Gly-Pro-pNA (125 μM) as well as half and twice the Km. Data were fitted by non-linear regression to the competitive inhibitor equation (Graphit 5.0, Erithacus software).

[3] = system: LPS-induced IL-6 release in primary rat astrocytes; test: LPS-induced IL-6 release in primary rat astrocytes (ELISA); format: cell-based; conditions: 1 μg/ml LPS, 20 μM compound, 24 h
Protocol: (§2) According to Löffler, astrocyte-rich primary cell cultures were started with brains of newborn mice and rats and were maintained in Dulbecco's modified Eagle's medium (DMEM) for 33 days at 37°C in a humified atmosphere with 95% air/5% CO2.
as §1
(§3) Figure 5 Suppression of LPS-induced IL-6 release in primary murine astrocytes by selected HAK compounds. […] Astrocytes derived from newborn mice and rats were cultivated for 33 days followed by stimulation with 1 μg/ml LPS and treatment with compounds HAK-2 and HAK-5 (20 μM). After 24 hours conditioned media were analyzed with IL-6 specific ELISA. Data (mean ± SD) were obtained from experiments carried out in quadruplicate and statistical analysis was performed using the paired t test. Amount of IL-6 in LPS-treated control sample was set to 100%. ns, not significant; **p < 0.01; ***p < 0.001.
(§4) Primary murine astrocytes stimulated with 1 μg/ml LPS were co-treated with compounds HAK-2 and HAK-5 at a concentration of 20 μM each for 24 h. The observed effect of compounds HAK-2 and HAK-5 on LPS stimulation was similar to that of OSM-induced IL-6 expression in human U343 glioma cells (Figures 5A and 5B). […]

[4] = system: LPS-induced IL-6 release in primary mouse astrocytes; test: LPS-induced IL-6 release in primary mouse astrocytes (ELISA); format: cell-based; conditions: 1 μg/ml LPS, 20 μM compound, 24 h
Protocol: as §2, §1, §3, §4

[5] = system: STAT3 phosphorylation at serine 727 (pSTAT3^S727) in U343 cells; test: OSM-induced STAT3 / Erk1 phosphorylation in U343 cells (western blot, immunocytochemistry); format: cell-based, human; conditions: OSM 100 ng/ml, 20 μM compound, 6 h
Protocol: Human U343 cells were lysed with cell lysis buffer (Invitrogen, Darmstadt, Germany) supplemented with 0.2 mg/ml sodium orthovanadate (Sigma, Taufkirchen, Germany), protease inhibitor mix complete mini (Roche, Mannheim, Germany) and 1 mM AEBSF (Sigma, Taufkirchen, Germany) for 30 min on ice. Lysates were centrifuged for 15 min at 15,000 × g and 4°C. Protein content in supernatants was quantified by Bradford assay (Sigma, Taufkirchen, Germany) according to the manufacturer's protocol and stored at -20°C.
Western blotting was performed with 30 μg protein of whole-cell extracts, mixed with 4 x SDS sample loading buffer (Invitrogen, Darmstadt, Germany) and denatured for 10 min at 85°C. […]
Human U343 cells (1 × 10^5 cells/well) were grown on cover slips in 24-well plates (Greiner, Frickenhausen, Germany) for 24 h. […] Finally, cover slips were mounted on microscope slides and approximately 250 cells/sample were evaluated densitometrically by fluorescence microscopy (Zeiss, Jena, Germany) and MetaMorph Image Analysis Software (Universal Imaging Corporation, USA). […]
Figure 7 Effect of selected HAK compounds on OSM-induced STAT3 phosphorylation at serine 727 in U343 cells. […] For western blot analysis (A) 0.25 × 10^6 cells co-treated for 6 h with OSM (100 ng/ml) and selected HAK compounds (20 μM) were extracted and analyzed as described in experimental procedures. […]

[6] = system: OSM-induced IL-6 mRNA expression; parameters: method as in PMID 10899931; conditions: cited from earlier work

SMILES | Ki [2] | PREP inhibition (in words) [2] | Remaining IL-6 expression [% of control] [1] | Effect on OSM-induced IL-6 secretion (in words) [1] | Reduction of LPS-induced IL-6 expression [3] | Reduction of LPS-induced IL-6 expression [4] | Effect on pSTAT3^S727 phosphorylation (western blot) [5] | Suppression of OSM-mediated phosphorylation of pSTAT3^S727 (immunocytochemistry, densitometry) [5] | Effect on first OSM-induced IL-6 mRNA peak [6] | Effect on second OSM-induced IL-6 expression peak [6]
CC(C)C[C@H](NC(=O)[C@H](Cc1ccccc1)NC(=O)OCc1ccccc1)C(=O)c1nc2ccccc2s1 [HAK-3, Z-Phe-Leu-BTh] | > 1000 nM | poor PREP inhibitors | 22.1 ±5.91 % of control | significantly reduced |  |  |  |  |  | 
C[C@H](NC(=O)[C@H](Cc1ccccc1)NC(=O)OCc1ccccc1)C(=O)c1nc2ccccc2s1 [HAK-4, Z-Phe-Ala-BTh] | > 10000 nM | poor PREP inhibitors | 35.1 ± 6.75 % of control | significantly reduced |  |  |  |  |  | 
O=C(O)C[C@H](NC(=O)OCc1ccccc1)C(=O)N1CCC[C@H]1C(=O)c1nc2ccccc2s1 [HAK-7, Z-Asp-Pro-BTh] | 12 nM |  | 52.8 ± 3.91 % of control | significantly reduced |  |  |  |  |  | 
O=C(NC(Cc1ccccc1)C(=O)NC(Cc1ccccc1)C(=O)c1nc2ccccc2s1)OCc1ccccc1 (stereo not drawn) [HAK-9, Z-Phe-Phe-BTh] | > 10000 nM |  | 182.8 ± 25.41 % of control |  |  |  |  |  |  | 
COc1ccc(C[C@H](N)C(=O)N[C@H]2[C@@H](O)[C@H](n3cnc4c(N(C)C)ncnc43)O[C@@H]2CO)cc1 [puromycin] |  |  |  |  |  |  |  |  | no effect | completely abrogated

Continued by falling Ki [2], values first:

Ki [2] | PREP inhibition (in words) [2] | SMILES | Remaining IL-6 expression [% of control] [1] | Effect on OSM-induced IL-6 secretion (in words) [1] | Reduction of LPS-induced IL-6 expression [3] | Reduction of LPS-induced IL-6 expression [4] | Effect on pSTAT3^S727 phosphorylation (western blot) [5] | Suppression of OSM-mediated phosphorylation of pSTAT3^S727 (immunocytochemistry, densitometry) [5] | Effect on first OSM-induced IL-6 mRNA peak [6] | Effect on second OSM-induced IL-6 expression peak [6]
4.6 nM |  | O=C(N[C@@H](Cc1ccccc1)C(=O)N1CCC[C@H]1C(=O)c1nc2ccccc2s1)OCc1ccccc1 [HAK-1, Z-Phe-Pro-BTh] | 15.9 ± 1.87 % of control | significantly reduced |  |  |  |  |  | 
4.1 nM |  | NCCCC[C@H](NC(=O)OCc1ccccc1)C(=O)N1CCC[C@H]1C(=O)c1nc2ccccc2s1 [HAK-6, Z-Lys-Pro-BTh] | 38.8 ± 5.26 % of control | significantly reduced |  |  |  |  |  | 
3.2 nM | potent PREP inhibitor | N=C(N)NCCC[C@H](NC(=O)OCc1ccccc1)C(=O)N1CCC[C@H]1C(=O)c1nc2ccccc2s1 [HAK-8, Z-Arg-Pro-BTh] | 96.8 ± 10.69 % of control | does not reduce |  |  | significantly lower effect | did not |  | 
0.11 nM |  | O=C(N[C@@H](Cc1ccccc1)C(=O)N1CCC[C@H]1C(=O)c1nccs1)OCc1ccccc1 [HAK-5, Z-Phe-Pro-Th] | 35.2 ± 12.92 % of control | significantly reduced | 50% | 60% |  |  |  | 
